Measurements taken from PubChem BioAssay AID248 (DTP/NCI, 2004).
“And” between values parts separate entries of the source, which are not always exact repeats. Identical values can stand only once. Toxic doses and inconclusive results are not listed. Rule as the data show it: active = T/C of 150% or more; inactive = T/C below 125%.

Test system: L1210 leukemia ip in BDF1 mice, survival T/C
Test: NCI In Vivo Anticancer Drug Screen. Data for tumor model L1210 Leukemia (intraperitoneal) in B6D2F1 (BDF1) mice
Settings: endpoint: mean survival time, higher = longer survival
Summary of the method: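 Value reflects the ratio of survival in compound-treated mice to survival in vehicle-treated controls, with both groups carrying the same transplanted tumor.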

[1] = dose: 100.0 mg/kg/injection, schedule: Q01DX009 (ip), vehicle: Klucel (hydroxypropylcellulose) (HPC)
[2] = dose: 100.0 mg/kg/injection, schedule: Q04DX002 (ip), vehicle: Klucel (hydroxypropylcellulose) (HPC)
[3] = dose: 200.0 mg/kg/injection, schedule: Q01DX009 (ip), vehicle: Klucel (hydroxypropylcellulose) (HPC)
[4] = dose: 200.0 mg/kg/injection, schedule: Q04DX002 (ip), vehicle: Klucel (hydroxypropylcellulose) (HPC)
[5] = dose: 400.0 mg/kg/injection, schedule: Q01DX009 (ip), vehicle: Klucel (hydroxypropylcellulose) (HPC)
[6] = dose: 400.0 mg/kg/injection, schedule: Q04DX002 (ip), vehicle: Klucel (hydroxypropylcellulose) (HPC)
[7] = dose: 100.0 mg/kg/injection, schedule: Q01DX009 (ip), vehicle: saline with Tween-80
[8] = dose: 200.0 mg/kg/injection, schedule: Q01DX009 (ip), vehicle: saline with Tween-80
[9] = dose: 400.0 mg/kg/injection, schedule: Q01DX009 (ip), vehicle: saline with Tween-80
[10] = dose: 100.0 mg/kg/injection, schedule: Q01DX001 (ip), vehicle: saline with Tween-80
[11] = dose: 200.0 mg/kg/injection, schedule: Q01DX001 (ip), vehicle: saline with Tween-80
[12] = dose: 400.0 mg/kg/injection, schedule: Q01DX001 (ip), vehicle: saline with Tween-80
[13] = dose: 100.0 mg/kg/injection, schedule: Q04DX003 (ip), vehicle: saline with Tween-80
[14] = dose: 200.0 mg/kg/injection, schedule: Q04DX003 (ip), vehicle: saline with Tween-80
[15] = dose: 50.0 mg/kg/injection, schedule: Q04DX003 (ip), vehicle: saline with Tween-80
[16] = dose: 400.0 mg/kg/injection, schedule: Q04DX003 (ip), vehicle: saline with Tween-80

Measured: T/C

CCCCCC(=O)NCC(=O)N1CCC(C(=O)NCCCCC(=O)OC)C1 (configuration not stated)
inactive: dose: 100.0 mg/kg/injection, schedule: Q04DX003 (ip), vehicle: saline 97 % of control | dose: 200.0 mg/kg/injection, schedule: Q04DX003 (ip), vehicle: saline 94 % of control | dose: 400.0 mg/kg/injection, schedule: Q04DX003 (ip), vehicle: saline 86 % of control

CC(C)OC(=O)Nc1ccccc1
inactive: [1] 93 % of control | [2] 102 % of control | [3] 93 % of control | [4] 112 % of control | [5] 110 % of control | [6] 115 % of control

Cc1cccc(NC(=S)N(C)C)c1
inactive: [7] 99 % of control | [8] 101 % of control | [9] 94 % of control

Cc1ccc(S(=O)(=O)OCC2C(COS(=O)(=O)c3ccc(C)cc3)C3C=CC2C32CC2)cc1 (configuration not stated)
inactive: [2] 105 % of control | [4] 110 % of control | [6] 102 % of control

Cc1ccc(S(=O)(=O)N/N=C2/CC(C)(C)CC(=O)C2(C)C)cc1
inactive: [2] 102 % of control | [4] 102 % of control | [6] 102 % of control

CC(C)c1ccc2c(c1)CC[C@H]1[C@](C)(C(=O)O)CCC[C@]21C
inactive: [10] 101 % of control | [11] 105 % of control | [12] 105 % of control

CCOC(=O)c1c(C)nc(C)c(C(=O)OCC)c1C
inactive: [10] 101 % of control | [11] 99 % of control | [12] 95 % of control

O=C(N/N=C/C1CCCCC1)C(=O)N/N=C/C1CCCCC1
inactive: dose: 12.5 mg/kg/injection, schedule: Q01DX009 (ip), vehicle: Klucel (hydroxypropylcellulose) (HPC) 90 % of control | dose: 25.0 mg/kg/injection, schedule: Q01DX009 (ip), vehicle: Klucel (hydroxypropylcellulose) (HPC) 96 % of control and 89 % of control | [3] 89 % of control

CC1=CC2=C(C=O)C(=O)[C@](C)(O)[C@@H](O)C2=CO1
inactive: dose: 50.0 mg/kg/injection, schedule: Q01DX009 (ip), vehicle: saline with Tween-80 109 % of control | [13] 93 % of control | [14] 117 % of control

CCOC(=O)C(C)C(C)(O)c1ccccc1 (configuration not stated)
inactive: [7] 95 % of control | [8] 109 % of control | [9] 96 % of control

CCOC(=O)c1c(-c2ccccc2)csc1N
inactive: [15] 97 % of control | [13] 94 % of control | [14] 90 % of control

C/C(=N/Nc1ccc([N+](=O)[O-])cc1[N+](=O)[O-])C(C)(C)C
inactive: dose: 25.0 mg/kg/injection, schedule: Q04DX002 (ip), vehicle: Klucel (hydroxypropylcellulose) (HPC) 87 % of control | dose: 50.0 mg/kg/injection, schedule: Q04DX002 (ip), vehicle: Klucel (hydroxypropylcellulose) (HPC) 93 % of control | [2] 101 % of control and 90 % of control | [4] 97 % of control | [6] 93 % of control

CC(=O)NC(C(=O)O)(C(=O)O)C(C)c1c[nH]c2ccccc12 (configuration not stated)
inactive: [13] 95 % of control | [14] 90 % of control | [16] 95 % of control

CC(=O)Nc1ccccc1C(C#N)Cc1ccccc1 (configuration not stated)
inactive: dose: 75.0 mg/kg/injection, schedule: Q01DX001 (ip), vehicle: other 96 % of control | dose: 150.0 mg/kg/injection, schedule: Q01DX001 (ip), vehicle: other 101 % of control | dose: 300.0 mg/kg/injection, schedule: Q01DX001 (ip), vehicle: other 101 % of control

O=C(NCCCBr)Nc1cccc2c1CCCC2
inactive: [15] 95 % of control | [7] 100 % of control | [13] 93 % of control | [8] 97 % of control | [14] 101 % of control | [9] 96 % of control | [16] 95 % of control

NNC(=O)c1ccc(NC(=S)Nc2ccccc2)cc1
inactive: [1] 93 % of control | [3] 93 % of control | [5] 104 % of control

O=C(O)/C=C/SCc1ccccc1
inactive: [2] 97 % of control | [4] 90 % of control | [6] 97 % of control

CN1CCN(c2ccccc2N)CC1
inactive: dose: 5.0 mg/kg/injection, schedule: Q04DX003 (ip), vehicle: saline 107 % of control | dose: 10.0 mg/kg/injection, schedule: Q04DX003 (ip), vehicle: saline 96 % of control | dose: 20.0 mg/kg/injection, schedule: Q04DX003 (ip), vehicle: saline 96 % of control

CC1(C)c2ccc([nH]2)C(C)(C)c2ccc([nH]2)C(C)(C)c2c[nH]cc2C(C)(C)c2ccc1[nH]2
inactive: dose: 100.0 mg/kg/injection, schedule: Q01DX001 (ip), vehicle: saline 102 % of control | dose: 200.0 mg/kg/injection, schedule: Q01DX001 (ip), vehicle: saline 94 % of control | dose: 400.0 mg/kg/injection, schedule: Q01DX001 (ip), vehicle: saline 97 % of control

Cc1ccc(S(=O)(=O)N/N=C/C(C)(C)C(C)C)cc1
inactive: [13] 108 % of control | [14] 97 % of control | [16] 98 % of control

CC1(C)N=C(c2ccccc2)C2C(c3ccc([N+](=O)[O-])cc3)N21 (configuration not stated)
inactive: dose: 50.0 mg/kg/injection, schedule: Q01DX001 (ip), vehicle: carboxymethylcellulose (CMC) 98 % of control | dose: 100.0 mg/kg/injection, schedule: Q01DX001 (ip), vehicle: carboxymethylcellulose (CMC) 88 % of control | dose: 200.0 mg/kg/injection, schedule: Q01DX001 (ip), vehicle: carboxymethylcellulose (CMC) 93 % of control | dose: 400.0 mg/kg/injection, schedule: Q01DX001 (ip), vehicle: carboxymethylcellulose (CMC) 91 % of control

CC1(C)CN=C(c2cccc([N+](=O)[O-])c2)O1
inactive: [1] 98 % of control | [3] 105 % of control | [5] 100 % of control

CC(=O)n1c2ccccc2c2ccccc21
inactive: dose: 100.0 mg/kg/injection, schedule: Q04DX002 (ip), vehicle: gum acacia 95 % of control | dose: 200.0 mg/kg/injection, schedule: Q04DX002 (ip), vehicle: gum acacia 88 % of control | dose: 400.0 mg/kg/injection, schedule: Q04DX002 (ip), vehicle: gum acacia 100 % of control

CC(C)=CCNC12CC3CC(CC(C3)C1)C2
inactive: dose: 5.0 mg/kg/injection, schedule: Q01DX001 (ip), vehicle: saline 101 % of control | dose: 10.0 mg/kg/injection, schedule: Q01DX001 (ip), vehicle: saline 106 % of control | dose: 20.0 mg/kg/injection, schedule: Q01DX001 (ip), vehicle: saline 108 % of control | dose: 40.0 mg/kg/injection, schedule: Q01DX001 (ip), vehicle: saline 107 % of control | dose: 80.0 mg/kg/injection, schedule: Q01DX001 (ip), vehicle: saline 104 % of control

Cn1c(=O)c2[nH]c(-c3ccc4c(c3)OCO4)nc2n(C)c1=O
inactive: dose: 50.0 mg/kg/injection, schedule: Q01DX001 (ip), vehicle: other 95 % of control | dose: 100.0 mg/kg/injection, schedule: Q01DX001 (ip), vehicle: other 97 % of control | dose: 200.0 mg/kg/injection, schedule: Q01DX001 (ip), vehicle: other 95 % of control | dose: 400.0 mg/kg/injection, schedule: Q01DX001 (ip), vehicle: other 86 % of control

C=C(C)C1(O)C=CC(=O)O1 (configuration not stated)
inactive: dose: 12.5 mg/kg/injection, schedule: Q01DX009 (ip), vehicle: saline 102 % of control | dose: 25.0 mg/kg/injection, schedule: Q01DX009 (ip), vehicle: saline 100 % of control | dose: 50.0 mg/kg/injection, schedule: Q01DX009 (ip), vehicle: saline 107 % of control

C1CCC(N(CCN(C2CCCCC2)C2CCCCC2)C2CCCCC2)CC1
inactive: dose: 25.0 mg/kg/injection, schedule: Q04DX013 (ip), vehicle: carboxymethylcellulose (CMC) 100 % of control | dose: 50.0 mg/kg/injection, schedule: Q04DX013 (ip), vehicle: carboxymethylcellulose (CMC) 94 % of control | dose: 100.0 mg/kg/injection, schedule: Q04DX013 (ip), vehicle: carboxymethylcellulose (CMC) 96 % of control

CN(C)c1ccc(Cc2ccc(N(C)C)cc2)cc1
inactive: [7] 96 % of control | [8] 94 % of control | [9] 86 % of control
